Source: publication PMC3303804, “Inflammation-Associated Nitrotyrosination Affects TCR Recognition through Reduced Stability and Alteration of the Molecular Surface of the MHC Complex” (PLoS ONE, 2012)
Entries after “also recorded” stand apart in the source; their conditions may differ.

How the values were obtained:
T cell hybridoma 24H1 = tested on: T cell hybridoma 24H1; design: method as in PMID 18424715; details: cited from earlier work; for recognition by T cell hybridoma 24H1: H-2K^b/peptide or H-2K^b+ target cells coated with peptide
H-2K^b [1] = biological target: T1, H-2K^b (Mus musculus, UniProt P01901); test: Peptide-MHC binding affinity assay, stabilization of H-2K^b on TAP-deficient RMA-S cells; details: 5×10^5, peptide overnight (12 hours) 26°C in serum free AIM-V, then 37°C 60 min without peptide, anti-H-2K^b AF6-88.5, flow cytometry, MFI relative to no peptide, repeated three times
T1 sequence (P01901 whole entry, looked up): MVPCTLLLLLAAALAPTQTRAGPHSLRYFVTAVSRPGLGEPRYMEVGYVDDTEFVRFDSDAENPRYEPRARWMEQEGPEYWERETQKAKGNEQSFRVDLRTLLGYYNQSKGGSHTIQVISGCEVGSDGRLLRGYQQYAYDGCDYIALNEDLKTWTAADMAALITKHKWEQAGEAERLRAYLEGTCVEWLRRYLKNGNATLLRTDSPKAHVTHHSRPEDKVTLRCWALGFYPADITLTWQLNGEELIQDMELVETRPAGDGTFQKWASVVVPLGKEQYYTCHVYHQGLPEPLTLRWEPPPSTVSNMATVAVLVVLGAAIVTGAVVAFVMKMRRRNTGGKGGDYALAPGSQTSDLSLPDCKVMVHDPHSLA

H-2K^b [2] = biological target: T1, H-2K^b; test: MHC complex stability, circular dichroism thermal denaturation; assay type: binding; details: for Tm (melting temperature): soluble H-2K^b/peptide complex, CD 218 nm, 30-75°C, 48°C/hour, 20 mM K2HPO4/KH2PO4 pH 7.5, protein 0.15 to 0.25 mg/ml, Tm at 50% denaturation
H-2K^b [3] = biological target: T1, H-2K^b; test: MHC complex stability, Thermofluor (differential scanning fluorimetry); assay type: binding; details: H-2K^b/peptide complex 0.25 mg/mL, 10 mM Na^+ HEPES pH 7.3, 150 mM NaCl, SYPRO Orange, 20 to 95°C at 1°C/min; maximum of first derivative; average of three distinct melting curves
Method: Differential scanning fluorimetry experiments were carried out using an iQ5 real-time PCR detection system (Bio-Rad). 96-well PCR plates were filled with 23 µl of MHC solution (0.25 mg/mL) in 10 mM Na^+ HEPES buffer (pH 7.3), 150 mM NaCl per well. Finally, the fluorophore (2 µl of 125× SYPRO Orange (Sigma S5692)) was added to each well and the plate was sealed with optical sealing tape (Bio-Rad). An iQ5 Real-Time PCR Detection System, calibrated with External Well factor solution was used to monitor the changes in fluorescence intensity of the fluorophore. The temperature of the samples was changed from 20 to 95°C at a heating rate of 1°C/min and the fluorescence was recorded every 0.2°C. The melting temperature (Tm) of each melting curve was calculated as the maximum of the first derivative of the curve. The average Tm value of each protein was determined from three distinct melting curves.

T cell hybridoma 4C8 = details: H-2D^b context; 4C8 is H-2D^b/NY-gp33-specific; cited from earlier work
From the text: A significant amount of the overall CD8^+ T cell response to LCMV is dominated by very few viral epitopes, comprising the H-2D^b-and H-2K^b- restricted peptide gp33–41 (hereafter referred to as gp33; […]) and the H-2K^b-restricted peptide gp34–41 (gp34; […]), [39]. Both gp33 and gp34 contain a single tyrosine residue at positions ...

[4] = average of at least two independent measurements, value ± spread printed in Figure 4B
[5] = average of at least two measurements from two independent refolding assays

| Substance | relative level of recognition by 24H1, NY-gp34 versus NY-gp33 (T cell hybridoma 24H1; H-2K^b context) | recognition by T cell hybridoma 24H1 (T cell hybridoma 24H1) | binding affinity to H-2K^b (cell surface stabilization) (H-2K^b [1]) | capacity to stabilize H-2K^b complexes (H-2K^b [2]; CD thermal denaturation, compared to gp34) | decrease in Tm of H-2K^b/NY-gp34 versus H-2K^b/gp34 (H-2K^b [2]; CD, pH 7.5, lower than for H-2K^b/gp34 (nearly)) [°C] | Tm (melting temperature) (H-2K^b [2]; [4]) | Tm (melting temperature) (H-2K^b [2]; [5]) [°C] | Tm (melting temperature) (H-2K^b [3]) | recognition by T cell hybridoma 4C8 (T cell hybridoma 4C8) |
| --- | --- | --- | --- | --- | --- | --- | --- | --- | --- |
| AV-p3NY-NFATM [NY-gp34, nitrotyrosinated gp34, AV-p3NY-NFATM] | to a higher level when compared to H-2K^b/NY-gp33 | recognized; also recorded: responded to stimulation | significantly reduced binding affinity; also recorded: significantly reduced when compared to gp33 and gp34 | considerably reducing the stability; also recorded: significantly reduced when compared to gp34; also recorded: significantly reduced capacity | ~10 | 47.3 ± 0.1 | 47.3 | 44.5±0.2 |  |
| AVYNFATM [gp34] |  | did not recognize |  |  |  | 56.7 ± 0.1 | 56.7 | 54.4±0.1 |  |
| KAVYNFATM [gp33] |  | did not recognize |  |  |  |  |  |  | did not recognize |
